Assay in all cases: NCI anticancer screen, dose series, 48 h
In experiment [1] the test system is SN12C renal.
Experiment [2] concerns ACHN renal.
Experiment [3] relates to EKVX NSCLC.
In experiment [4] the test system is MDA-MB-231 breast.
The subject of experiment [5] is NCI-H460 lung.
Experiment [6] deals with SR leukemia.
Experiment [7] concerns RXF 393 renal.
Experiment [8] deals with SF-295 CNS.
Experiment [9] has as its system HS 578T breast.
In experiment [10] the test system is HL-60(TB) leukemia.

Values joined by “and” are separate entries in the source; they are usually repeats but may differ in a detail not shown here. Equal values may be shown once.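 Values below derive from 48-hour exposures of cells grown in 96-well plates, with endpoints linearly interpolated between the two concentrations bracketing the appropriate inhibition level. Abbreviation: GI50, concentration required for 50% inhibition of growth. TGI: total growth inhibition.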 Where only a bound is given, the exact number is not on record here.

In the case of `NC(=O)CSc1nc2ccccc2c(=O)n1N`, the TGI in experiment [1], in [2], in [3], in [4], in [5] and in [6] was above 100 µM each time. In addition, the TGI in [7], in experiment [8] and in [9] was above 100 µM in each case.
As to `O=C(Nc1cccc2ccccc12)c1cc2ccccc2oc1=O`, the TGI was above 100 µM in experiment [1]; above 100 µM in [2]; above 100 µM in experiment [10]; 58.1 µM in [4]; above 100 µM in [5]; above 100 µM in experiment [6]. For the same compound, the TGI in experiment [7] and in [9] was above 100 µM throughout.
Turning to `CCc1c(O)nc(Nc2nc3ccccc3[nH]2)[nH]c1=O`, the TGI in experiment [1], in [2], in [10], in experiment [4], in [5] and in experiment [6] was above 100 µM in each case. Also, the TGI in [7], in [8] and in [9] was above 100 µM in each case.
For `O=C1Nc2noc(=O)nc2NO1`, the TGI in experiment [1], in [2], in experiment [10], in experiment [3], in [4] and in [5] was above 200 µM in each case. Besides, the TGI in experiment [7], in [8] and in [9] was above 200 µM each time.
For the compound `O=c1c2ccc(Cl)cc2oc2c(CSc3ccccc3)cccc12`, the TGI in experiment [1] is above 100 µM; in experiment [2] it was above 65.1 µM; in experiment [3] it was above 100 µM; in [4], above 100 µM; in [5], 90.4 µM; in [6] it was above 100 µM. Moreover, the TGI in experiment [7], in experiment [8] and in experiment [9] was above 100 µM throughout.
As to `CCCCCCCCCCCC1=C(O)C(=O)C(CC2=C(O)C(=O)C(CCCCCCCCCCC)=C(O)C2=O)=C(O)C1=O`, the TGI in [1] is above 100 µM; in experiment [2] it was above 100 µM; in experiment [3], above 100 µM; in [4], above 100 µM; in experiment [5], above 100 µM; in [6], 42.4 µM. In addition, the values for the TGI in [7], in experiment [8] and in experiment [9] were 25.2 µM, above 100 µM and above 100 µM, respectively.
Turning to `COc1ccc(S(=O)(=O)NC(CCC(=O)NC(N)=O)C(=O)NC(N)=O)cc1` (configuration not stated), the TGI in experiment [1], in experiment [2], in [10], in experiment [3], in experiment [4] and in experiment [5] was above 100 µM each time. The TGI in experiment [6], in [8] and in experiment [9] was above 100 µM each time.
As to `Cc1ccc(C(=O)Nc2ccc(CP(=O)(O)O)cc2CP(=O)(O)O)cc1N`, the TGI in [1], in experiment [2], in experiment [10], in [3], in experiment [4] and in experiment [6] was above 100 µM each time. Moreover, the TGI in experiment [7], in experiment [8] and in [9] was above 100 µM each time.
As for `COc1ccccc1N=Nc1c(O)ccc2ccccc12`, the TGI was above 100 µM in experiment [1]; 27.2 µM in experiment [2]; 36.2 µM and 96.1 µM in [3]; above 100 µM in [4]; 38.1 µM in experiment [5]; above 100 µM in experiment [6]. The TGI in experiment [7] was 35.3 µM and 59.7 µM; in [8] it was 48.3 µM and 78.2 µM; in experiment [9], above 100 µM. Moreover, the GI50 was 4.42 µM and 19.5 µM in experiment [3]; 12.3 µM and 28.7 µM in experiment [7].
For `C/C(=N/NC(=S)Nc1ccc(C)cc1)c1ccccn1`, the TGI in [1] came to 7.65 µM; in experiment [2] it was 11.9 µM; in [10] it was 0.608 µM; in experiment [3] it was 5.12 µM; in experiment [4] it was 18.7 µM; in experiment [5], 7.95 µM. Moreover, the TGI came to 11 µM in experiment [7], 11.8 µM in experiment [8] and 17 µM in experiment [9].
Turning to `CC1=NC(=N)N=C(C)C1N=Nc1ccc2nc(C)[nH]c2c1` (configuration not stated), the TGI in experiment [1], in experiment [2], in experiment [10], in experiment [3], in [4] and in experiment [5] was above 100 µM each time. Besides, the TGI in experiment [7], in experiment [8] and in experiment [9] was above 100 µM throughout.
On to `COC(=O)[C@H](C)NC(=O)[C@H](NS(=O)(=O)c1nc2ccccc2s1)c1ccccc1`, for which the TGI in experiment [2] was above 100 µM; in experiment [10], above 100 µM; in experiment [3], above 100 µM; in [4] it was 64.6 µM; in experiment [5] it was above 100 µM; in experiment [6], above 100 µM. For the same compound, the TGI is 34.8 µM in [7], above 100 µM in [8] and 36.5 µM in experiment [9].
Turning to `O=S(Nc1ccccc1)c1ccc(Cl)cc1` (configuration not stated), the TGI in experiment [1], in [2], in experiment [10], in experiment [3], in experiment [4] and in experiment [5] was above 100 µM throughout. The TGI in experiment [6], in [8] and in [9] was above 100 µM throughout.
Regarding `Nc1c(C(=O)O)c2ccc([N+](=O)[O-])cc2c(=O)n1-c1nc2ccccc2s1`, the TGI in experiment [1], in [2], in experiment [3], in experiment [4], in experiment [5] and in experiment [6] was above 100 µM each time. The TGI in [7], in [8] and in [9] was above 100 µM in each case.

(Values after PubChem BioAssay (NCI).)
